IC50 data for 25 molecules are collected here from patent US20250282785A1, “PYRROLIDINONE DERIVATIVES AS INHIBITORS OF NF KAPPA B INDUCING KINASE” (priority 2022, published 2025).

Each structure is given as a SMILES string.

For test [1], the target named is Recombinant Human NF-Kappab-Inducing Kinase (NIK/MAP3K14) (Homo sapiens, UniProt Q99558). Put plainly: Inhibition of auto-phosphorylation of recombinant human NIK/MAP3K14 (AlphaScreen). As to conditions: NIK/MAP3K14 auto-phosphorylation, 5 microM ATP, 1 nM enzyme, 2 h at 25° C.; average of values; read-out: Assay 1 IC50. It is filed as biochemical. In a few lines:
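AlphaScreen read-out used anti-phospho-IKK Ser176/180 antibody after 2 h, 25 °C incubation of compound, 1 nM GST-NIK and 5 µM ATP (final DMSO 0.7%). Percent inhibition referenced to high (enzyme) and low (no enzyme, no ATP) controls; sigmoidal curve fitting gave IC50.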

For test [2], the system named is p-IKKα levels in L363 (NIK translocated multiple myeloma) cells. Put plainly: Effect of compounds on p-IKKα levels in L363 cells (AlphaLISA SureFire Ultra). It is filed as cell-based. As to conditions: Homo sapiens, L-363; L363 cells, BAFF stimulated, MG132, 6 h; average of values; read-out: Assay 2 IC50. In a few lines: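 Phospho-IKKα (Ser 176/180) was quantified by AlphaLISA in lysed L363 cells after 6 h compound exposure (0.3% DMSO, 11 points, 1:3) alongside 250 ng/ml BAFF and 10 uM MG132, following overnight BAFF priming in low-serum DMEM. Duplicate curves were scaled between BAFF/DMSO/MG132 and unstimulated DMSO wells, then fitted sigmoidally for IC50.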

Sequence of Recombinant Human NF-Kappab-Inducing Kinase (NIK/MAP3K14) (Q99558 whole entry): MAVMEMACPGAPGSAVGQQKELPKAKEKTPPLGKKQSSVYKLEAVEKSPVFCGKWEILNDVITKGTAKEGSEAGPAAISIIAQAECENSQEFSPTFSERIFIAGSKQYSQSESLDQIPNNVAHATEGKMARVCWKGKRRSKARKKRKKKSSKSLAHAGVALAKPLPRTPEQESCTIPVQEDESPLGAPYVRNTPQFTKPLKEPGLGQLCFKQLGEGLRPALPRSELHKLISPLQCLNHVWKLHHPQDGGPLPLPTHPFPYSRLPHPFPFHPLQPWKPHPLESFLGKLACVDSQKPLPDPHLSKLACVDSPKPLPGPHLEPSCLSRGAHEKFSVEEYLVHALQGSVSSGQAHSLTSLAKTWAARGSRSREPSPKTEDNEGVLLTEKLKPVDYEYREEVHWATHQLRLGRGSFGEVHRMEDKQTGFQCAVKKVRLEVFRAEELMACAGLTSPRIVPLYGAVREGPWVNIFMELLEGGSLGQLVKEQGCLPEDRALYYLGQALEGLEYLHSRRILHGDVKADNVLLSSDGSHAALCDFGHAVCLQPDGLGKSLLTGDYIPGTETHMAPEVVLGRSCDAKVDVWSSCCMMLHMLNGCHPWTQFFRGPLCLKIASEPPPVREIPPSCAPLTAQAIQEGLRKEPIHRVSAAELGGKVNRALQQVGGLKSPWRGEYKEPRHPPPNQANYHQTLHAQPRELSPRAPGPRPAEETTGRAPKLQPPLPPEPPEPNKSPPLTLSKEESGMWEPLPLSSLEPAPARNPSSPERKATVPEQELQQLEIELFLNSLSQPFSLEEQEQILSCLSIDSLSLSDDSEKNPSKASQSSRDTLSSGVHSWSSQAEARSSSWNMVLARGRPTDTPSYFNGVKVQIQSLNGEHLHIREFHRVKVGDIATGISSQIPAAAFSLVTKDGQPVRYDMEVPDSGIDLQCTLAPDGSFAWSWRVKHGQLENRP

As to `CN1CC[C@@](O)(c2cc(-c3cccc(-c4cc(C5CC5)c(N)c(C(N)=O)n4)c3)no2)C1=O` [Example 88, (R)-3-Amino-4-cyclopropyl-6-(3-(5-(3-hydroxy-1-methyl-2-oxopyrrolidin-3-yl)isoxazol-3-yl)phenyl)picolinamide], the IC50 in test [1] and in test [2] was under 100 nM throughout.

As to `CN1CC[C@@](O)(c2cc(-c3cccc(-c4nc(C(N)=O)c(N)cc4F)c3)no2)C1=O` [Example 89, (R)-3-Amino-5-fluoro-6-(3-(5-(3-hydroxy-1-methyl-2-oxopyrrolidin-3-yl)isoxazol-3-yl)phenyl)picolinamide], the figures for the IC50 in test [1] and in test [2] were under 100 nM and 100 to 500 nM, respectively.

For `CCn1cnc2c(C(N)=O)nc(-c3cccc(-c4cc([C@]5(O)CCN(C)C5=O)on4)c3)cc21` [Example 90, (R)-1-Ethyl-6-(3-(5-(3-hydroxy-1-methyl-2-oxopyrrolidin-3-yl)isoxazol-3-yl)phenyl)-1H-imidazo[4,5-c]pyridine-4-carboxamide], the results for the IC50 in test [1] and in test [2] were 100 to 500 nM and over 501 nM, respectively.

In the case of `CN1CC[C@@](O)(c2cc(-c3cccc(-c4cc(C(F)(F)F)cc(C(N)=O)n4)c3)no2)C1=O` [Example 91, (R)-6-(3-(5-(3-Hydroxy-1-methyl-2-oxopyrrolidin-3-yl)isoxazol-3-yl)phenyl)-4-(trifluoromethyl)picolinamide], the IC50 in test [1] was under 100 nM; in test [2], 100 to 500 nM.

`CN1CC[C@@](O)(c2cc(-c3cccc(-c4cn5cccc(C(N)=O)c5n4)c3)no2)C1=O` [Example 92, (R)-2-(3-(5-(3-Hydroxy-1-methyl-2-oxopyrrolidin-3-yl)isoxazol-3-yl)phenyl) imidazo[1,2-a]pyridine-8-carboxamide]: the IC50 in test [1] was 100 to 500 nM; in test [2], over 501 nM.

Consider `CN1CC[C@@](O)(c2cc(-c3cccc(-c4nc(C(N)=O)n5c4CCCC5)c3)no2)C1=O` [Example 93, (R)-1-(3-(5-(3-Hydroxy-1-methyl-2-oxopyrrolidin-3-yl)isoxazol-3-yl)phenyl)-5,6,7,8-tetrahydroimidazo[1,5-a]pyridine-3-carboxamide], for which the concentration for half-maximal inhibition (IC50) in test [1] and in test [2] was under 100 nM in each case.

Consider `CN1CC[C@@](O)(c2cc(-c3cccc(-c4cc(C(N)=O)nc5[nH]ccc45)c3)no2)C1=O` [Example 94, (R)-4-(3-(5-(3-Hydroxy-1-methyl-2-oxopyrrolidin-3-yl)isoxazol-3-yl)phenyl)-1H-pyrrolo[2,3-b]pyridine-6-carboxamide], for which the IC50 in test [1] and in test [2] was over 501 nM each time.

With `CN1CC[C@@](O)(c2cc(-c3cccc(-n4nc(C(=O)O)c5c4CCCC5)c3)no2)C1=O` [Example 95, (R)-1-(3-(5-(3-Hydroxy-1-methyl-2-oxopyrrolidin-3-yl)isoxazol-3-yl)phenyl)-4,5,6,7-tetrahydro-1H-indazole-3-carboxylic acid], the IC50 in test [1] and in test [2] was over 501 nM throughout.

Consider `CN1CC[C@@](O)(c2cc(-c3cccc(-c4cc(N)c5nc[nH]c(=O)c5n4)c3)no2)C1=O` [Example 96, (R)-8-Amino-6-(3-(5-(3-hydroxy-1-methyl-2-oxopyrrolidin-3-yl)isoxazol-3-yl)phenyl)pyrido[3,2-d]pyrimidin-4(3H)-one], for which the IC50 was under 100 nM in test [1] and over 501 nM in test [2].

As for `CN1CC[C@@](O)(c2cc(-c3cccc(-c4cc5[nH]cnc5c(C(N)=O)n4)c3)no2)C1=O` [Example 97, (R)-6-(3-(5-(3-Hydroxy-1-methyl-2-oxopyrrolidin-3-yl)isoxazol-3-yl)phenyl)-1H-imidazo[4,5-c]pyridine-4-carboxamide], the results for the IC50 in test [1] and in test [2] were under 100 nM and 100 to 500 nM, respectively.

Consider `CN1CC[C@@](O)(c2cc(-c3cccc(-c4nc(C(N)=O)cc(C(F)(F)F)n4)c3)no2)C1=O` [Example 98, (R)-2-(3-(5-(3-Hydroxy-1-methyl-2-oxopyrrolidin-3-yl)isoxazol-3-yl)phenyl)-6-(trifluoromethyl)pyrimidine-4-carboxamide], for which the IC50 is under 100 nM in test [1] and over 501 nM in test [2].

Consider `CN1CC[C@@](O)(c2cc(-c3cccc(-n4nc(C(N)=O)c5cc(-c6ccn(C)n6)ccc54)c3)no2)C1=O` [Example 99, (R)-1-(3-(5-(3-Hydroxy-1-methyl-2-oxopyrrolidin-3-yl)isoxazol-3-yl)phenyl)-5-(1-methyl-1H-pyrazol-3-yl)-1H-indazole-3-carboxamide], for which the IC50 in test [1] and in test [2] was under 100 nM each time.

In the case of `CN1CC[C@@](O)(c2cc(-c3cccc(-c4cc(N5CC(F)(F)C5)cc(C(N)=O)n4)c3)no2)C1=O` [Example 100, (R)-4-(3,3-Difluoroazetidin-1-yl)-6-(3-(5-(3-hydroxy-1-methyl-2-oxopyrrolidin-3-yl)isoxazol-3-yl)phenyl)picolinamide], the IC50 in test [1] was under 100 nM; in test [2], over 501 nM.

On to `CN1CC[C@@](O)(c2cc(-c3cccc(-n4nc(C(N)=O)c5cc(F)ccc54)c3)no2)C1=O` [Example 101, (R)-5-Fluoro-1-(3-(5-(3-hydroxy-1-methyl-2-oxopyrrolidin-3-yl)isoxazol-3-yl)phenyl)-1H-indazole-3-carboxamide], for which the IC50 in test [1] is under 100 nM; in test [2], 100 to 500 nM.

For the molecule `CN1CC[C@@](O)(c2cc(-c3cccc(-n4nc(C(N)=O)c5c4CCCC5)c3)no2)C1=O` [Example 102, (R)-1-(3-(5-(3-Hydroxy-1-methyl-2-oxopyrrolidin-3-yl)isoxazol-3-yl)phenyl)-4,5,6,7-tetrahydro-1H-indazole-3-carboxamide], the half-inhibitory concentration (IC50) in test [1] is under 100 nM; in test [2] it was over 501 nM.

For the molecule `COc1ccc2c(c1)c(C(N)=O)nn2-c1cccc(-c2cc([C@]3(O)CCN(C)C3=O)on2)c1` [Example 103, (R)-1-(3-(5-(3-Hydroxy-1-methyl-2-oxopyrrolidin-3-yl)isoxazol-3-yl)phenyl)-5-methoxy-1H-indazole-3-carboxamide], the IC50 in test [1] and in test [2] was under 100 nM each time.

Take `CNc1ccc(-c2cccc(-c3cc([C@]4(O)CCN(C)C4=O)on3)c2)nc1C(N)=O` [Example 104, (R)-6-(3-(5-(3-Hydroxy-1-methyl-2-oxopyrrolidin-3-yl)isoxazol-3-yl)phenyl)-3-(methylamino)picolinamide]: the IC50 in test [1] and in test [2] was under 100 nM throughout.

As to `CN1CC[C@@](O)(c2cc(-c3cccc(-c4ncc(NC5COC5)c(C(N)=O)n4)c3)no2)C1=O` [Example 105, (R)-2-(3-(5-(3-Hydroxy-1-methyl-2-oxopyrrolidin-3-yl)isoxazol-3-yl)phenyl)-5-(oxetan-3-ylamino)pyrimidine-4-carboxamide], the IC50 in test [1] and in test [2] was under 100 nM throughout.

As for `CN1CC[C@@](O)(c2cc(-c3cccc(-c4ccc(NCC5COC5)c(C(N)=O)n4)c3)no2)C1=O` [Example 106, (R)-6-(3-(5-(3-Hydroxy-1-methyl-2-oxopyrrolidin-3-yl)isoxazol-3-yl)phenyl)-3-((oxetan-3-ylmethyl)amino)picolinamide], the IC50 in test [1] was under 100 nM; in test [2], 100 to 500 nM.

In the case of `CN1CC[C@@](O)(c2cc(-c3cccc(-c4ncc(NCC5COC5)c(C(N)=O)n4)c3)no2)C1=O` [Example 107, (R)-2-(3-(5-(3-Hydroxy-1-methyl-2-oxopyrrolidin-3-yl)isoxazol-3-yl)phenyl)-5-((oxetan-3-ylmethyl)amino)pyrimidine-4-carboxamide], the IC50 in test [1] and in test [2] was under 100 nM throughout.

Consider `CN1CC[C@@](O)(c2cc(-c3cccc(-c4cc(C5CC5)c(N)c(C(N)=O)n4)c3)on2)C1=O` [Example 108, (R)-3-Amino-4-cyclopropyl-6-(3-(3-(3-hydroxy-1-methyl-2-oxopyrrolidin-3-yl)isoxazol-5-yl)phenyl)picolinamide], for which the IC50 in test [1] and in test [2] was under 100 nM throughout.

Consider `CN1CC[C@@](O)(c2cc(-c3cccc(-c4nc(C(N)=O)n5ccncc45)c3)no2)C1=O` [Example 109, (R)-1-(3-(5-(3-Hydroxy-1-methyl-2-oxopyrrolidin-3-yl)isoxazol-3-yl)phenyl)imidazo[1,5-a]pyrazine-3-carboxamide], for which the figures for the IC50 in test [1] and in test [2] were under 100 nM and 100 to 500 nM, respectively.

`CN1CC[C@@](O)(c2cc(-c3cccc(-c4cnc(N)c(C(N)=O)n4)c3)no2)C1=O` [Example 110, (R)-3-Amino-6-(3-(5-(3-hydroxy-1-methyl-2-oxopyrrolidin-3-yl)isoxazol-3-yl)phenyl)pyrazine-2-carboxamide]: the half-maximal inhibitory concentration (IC50) in test [1] and in test [2] was under 100 nM in each case.

Take `CN1CC[C@@](O)(c2cc(-c3cccc(-c4ncc(NC5CC5)c(C(N)=O)n4)c3)no2)C1=O` [Example 111, (R)-5-(Cyclopropylamino)-2-(3-(5-(3-hydroxy-1-methyl-2-oxopyrrolidin-3-yl)isoxazol-3-yl)phenyl)pyrimidine-4-carboxamide]: the IC50 in test [1] and in test [2] was under 100 nM each time.

Turning to `CN1CC[C@@](O)(c2cc(-c3cccc(-n4nc(C(N)=O)c5cc(C6CC6)ccc54)c3)no2)C1=O` [Example 112, (R)-5-Cyclopropyl-1-(3-(5-(3-hydroxy-1-methyl-2-oxopyrrolidin-3-yl)isoxazol-3-yl)phenyl)-1H-indazole-3-carboxamide], the IC50 in test [1] is under 100 nM; in test [2], 100 to 500 nM.
